# Results taken from patent publication US20180073018A1, “COMPOSITIONS AND METHODS FOR SPECIFIC REACTIVATION OF HIV LATENT RESERVOIR” (priority 2015, published 2018).
# How the values were obtained:
# Format in all cases: cell-based
# HIV-1 LTR promoter [1] = assay: dCas9-VPH/msgRNA (or SAHA) reactivation of latent LTR-eLuc reporter in TZM-bI cells; conditions: TZM-bI, transient transfection or lentivirus infection, 2 days
# Method: Cells were plated in 96-well plate and the indicated MS2-gRNAs were cotransfected by Lipofectamine 3000 (FIG. 3A) or coinfected by lentiviruses (FIG. 3B, MOI=50) with pMSCV-LTR-dCas9-VP64-BFP plus pLV-MS2-p65-HSF1-GFP. Two days later, OneGlo luminescence assay was performed. The SIV MS2-gRNA-D was used as negative control. […] The gRNA-J has no effect due to 2 nucleotides mismatch to the LTR sequence from TZM-bI cells.
# FIG. 8A, FIG. 8B, FIG. 8C, and FIG. 8D, depict the results of experiments of screening of MS2-mediated sgRNAs (msgRNAs) targeting the HIV-1 long terminal repeat (LTR) in the dCas9-synergistic activation mediator (SAM) system. FIG. 8A is a schematic illustration of SAM-VPH complex derived from dCas9-VP64 (V) and MS2-p65-HSF1 (PH) with msgRNAs. FIG. 8B is a graph showing similar activation of transfected EcoHIV-eLuc reporter by inducible (TRE) or constitutive (LTR) dCas9-VP64 expression in HEK293T cells. FIG. 8C is a graph showing similar reactivation of latent HIV-LTR-eLuc reporter in TZM-bI cells after either transient plasmid transfection by Lipofectamine 3000 or stable infection by lentivirus. […] The gRNA-J has no effect due to 2 nucleotides mismatch to the LTR sequence from TZM-bI cells. […]
# FIG. 9A and FIG. 9B: TZM-bI cells were infected with dCas9-VPH and indicated msgRNA lentiviruses at 1 or 10 MOI and luciferase activity was measured at 2-21 days post-infection (dpi). […]
# FIG. 12A, FIG. 12B, FIG. 12C: The dCas9-VPH stable TZM-bI cells were treated with SAHA or infected with indicated msgRNAs lentivirus for 2-4 d before luminescence reporter assay (FIG. 12A) and CELLTITER-GLO® luminescent cell viability assay (FIG. 12B). […]
# Experiments were conducted to compare reactivation of HIV-LTR luciferase reporter in TZM-BI cells induced by gRNA/dCas9-VP64/MS2-p65-HSF1/delivered by either transient plasmid transfection (FIG. 3A) or stable lentivirus infection (FIG. 3B). […] Two days later, OneGlo luminescence assay was performed. […]
# HIV-1 LTR promoter [2] = assay: dCas9-VP64/sgRNA reactivation of latent LTR-luciferase reporter in TZM-bI cells; conditions: sgRNA/dCas9-VP64 cotransfection, 3 days, relative to empty sgRNA control
# Excerpt: FIG. 1A, FIG. 1B, and FIG. 1C, depict results of experiments comprising HIV-1 LTR-gRNA screening for dCas9-VP64-induced reactivation of latent LTR-luciferase reporter in TZM-bI cells. FIG. 1A is a schematic illustration depicting HIV-gRNA target sites. FIG. 1B is a schematic depicting gRNA/dCas9-VP64 binding to a target region of HIV-LTR that drives luciferase expression in TZM-bI cells. FIG. 1C depicts the results of experiments investigating the reactivation of HIV-LTR (as measured by luciferase reporter) induced by the various gRNAs. […] After 3 days, the luminescence of the cell lysate was measured with OneGlo luminescence kit. […]
# Cultured cells were transfected using lipofectamine3000 transfection or lentivirus infection. The firefly-luciferase reporter assay was used using Envision multiplate reader. Treated and controls were imaged using fluorescent microscopy and/or were analyzed using flow cytometry. […]
# (§1) Cells were cultured in a 96-well plate and transfected or transduced with indicated vectors. To examine the eLuc reporter activity, the cell lysate was prepared using the ONE-Glo luciferase assay system (Promega) and luminescence was measured in a 2104 ENVISION® Multilabel Reader (PerkinElmer). […]
# HIV-1 LTR promoter [3] = assay: dCas9-VP64/MS2-p65-HSF1 (SAM, dCas9-VPH) with MS2-sgRNA: EcoHIV-eLuc reporter assay in HEK293T cells; conditions: MS2-sgRNA/dCas9-VP64/MS2-p65-HSF1, pEcoHIV-NL4-3-eLuc, MS2-p65-HSF1 only = 1.00
# Excerpt: FIG. 2A, FIG. 2B, and FIG. 2C, depict results of experiments comprising HIV-1 LTR-MS2-gRNA screening for LTR reactivation by SAM complex dCas9-VP64/MS2-p65-HSF1 in HEK293T cells. FIG. 2A and FIG. 2B depict a schematic of complex formation at the target site, where the complex comprises MS2-binding gRNA, dCas9-VP64, and MS2-p65-HSF1. FIG. 2C is a graph depicting the results of experiments investigating the reactivation of HIV-LTR induced by the various MS2-binding gRNA using pEcoHIV-NL4-3-eLuc reporter assay. […]
# as §1
# Thus, the newly-developed MS2-mediated SAM system was applied (FIG. 8A), which combined dCas9-VP64 with MS2-p65-HSF1 clustered trans-activators, designated dCas9-VPH (Konermann et al., 2015, Nature 517:583-8). […] To determine if dCas9-VPH/msgRNAs induced a better reactivation of HIV-1 latency, HIV-latent TZM-bI cells was cotransfected or cotransduced with dCas9-VPH and indicated msgRNAs (FIG. 8C) and the latency-reversing capability was measured. […]
substance,measurement,setting,value
MS2-p65-HSF1: MS2 bacteriophage coat protein fused to p65 and HSF1 transactivation domains (SEQ ID NO: 108),reactivation of HIV-LTR-luciferase reporter (in words),HIV-1 LTR promoter [1],did not influence the basal activity
LTR-P,sgRNA TZM-bI Fold (LTR-luciferase reporter),HIV-1 LTR promoter [2],1.15 Fold
same,MS2-sgRNA HEK293T Fold (EcoHIV-eLuc reporter),HIV-1 LTR promoter [3],1.32 Fold
